The record followed here is US8003695B2 (Chroma Therapeutics Ltd., priority 2006, dated 2011).

The test system of one assay is THP-1 cells. In words: LPS-Stimulation of THP-1 Cells, TNF-α release. It is filed as cell-based. The settings on record: Homo sapiens, LPS 1 μg/ml, 6 hrs, read-out: Inhibitor activity versus THP-1 TNFα release.
A further assay deals with human whole blood. In words: LPS-Stimulation of Human Whole Blood, TNF-α release. In kind it is cell-based. The settings on record: LPS 100 ng/ml, 6 hrs, read-out: Inhibitor activity versus human whole blood TNFα release. The protocol: LPS-Stimulation of Human Whole Blood
Whole blood was taken by venous puncture using heparinised vacutainers (Becton Dickinson) and diluted in an equal volume of RPMI1640 tissue culture media (Sigma). 100 μl was plated in V-bottomed 96 well tissue culture treated plates. 2 hrs after the addition of the inhibitor in 100 μl of RPMI1640 media, the blood was stimulated with LPS (E. coli strain 005:B5, Sigma) at a final concentration of 100 ng/ml and incubated at 37° C. in 5% CO2 for 6 hrs. TNF-α levels were measured from cell-free supernatants by sandwich ELISA (R&D Systems #QTA00B)

Another assay has as its target T1, IKBKB (IKKβ) (Homo sapiens, UniProt O14920).
T1 construct: purchased Invitrogen (Paisley, UK)
T1 sequence (O14920 1-756): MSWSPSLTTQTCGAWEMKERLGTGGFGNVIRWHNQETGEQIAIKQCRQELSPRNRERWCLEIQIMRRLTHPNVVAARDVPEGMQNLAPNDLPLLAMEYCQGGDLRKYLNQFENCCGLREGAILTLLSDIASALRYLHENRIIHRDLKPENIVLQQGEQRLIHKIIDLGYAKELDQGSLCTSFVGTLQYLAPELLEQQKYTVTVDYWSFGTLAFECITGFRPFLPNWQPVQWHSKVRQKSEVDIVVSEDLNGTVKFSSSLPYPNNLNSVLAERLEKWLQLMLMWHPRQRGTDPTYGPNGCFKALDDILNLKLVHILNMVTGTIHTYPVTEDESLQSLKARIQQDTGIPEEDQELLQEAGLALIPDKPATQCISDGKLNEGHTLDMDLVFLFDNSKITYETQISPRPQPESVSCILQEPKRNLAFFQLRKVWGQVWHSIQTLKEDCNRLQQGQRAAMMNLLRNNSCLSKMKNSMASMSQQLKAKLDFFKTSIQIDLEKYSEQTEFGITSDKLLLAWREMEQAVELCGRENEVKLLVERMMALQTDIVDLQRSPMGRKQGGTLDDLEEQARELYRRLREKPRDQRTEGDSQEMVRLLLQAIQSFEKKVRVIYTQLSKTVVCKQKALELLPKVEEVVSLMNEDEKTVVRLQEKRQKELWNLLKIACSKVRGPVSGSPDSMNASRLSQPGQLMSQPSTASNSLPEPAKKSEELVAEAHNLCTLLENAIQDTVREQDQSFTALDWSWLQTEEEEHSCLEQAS
Put plainly: IKKβ Enzyme Assay (Z'-LYTE, Invitrogen). The settings on record: ATP at or close to Km; read-out: Inhibitor activity versus IKKβ. In kind it is biochemical. The method in brief:
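Z'-LYTE FRET assay with 0.9-8.0 ng human IKBKB, 2 μM Ser/Thr 05 peptide and ATP at or near Km in HEPES pH 7.5, 60 min at room temperature, then 60 min development. Coumarin/fluorescein emission ratio read; duplicate nine-step ⅓-log series from 10 μM; IC50 from sigmoidal fit.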

For `CC(C)C[C@H](NC/C=C/c1ccc(-c2cc(C(N)=O)c(NC(N)=O)s2)cc1Cl)C(=O)OC1CCCC1` [Example 32, Cyclopentyl N-[(2E)-3-{4-[4-carbamoyl-5-(carbamoylamino)thiophen-2-yl]-2-chlorophenyl}prop-2-en-1-yl]-L-leucinate], the results for the IC50 with THP-1 cells, in the assay on human whole blood and on IKBKB (IKKβ) were under 1000 nM, 1000 to 5000 nM and 1000 to 5000 nM, respectively.

Turning to `Cc1cc(/C=C/CN[C@@H](CC(C)C)C(=O)OC2CCCC2)ccc1-c1cc(C(N)=O)c(NC(N)=O)s1` [Example 33, Cyclopentyl N-[(2E)-3-{4-[4-carbamoyl-5-(carbamoylamino)thiophen-2-yl]-3-methylphenyl}prop-2-en-1-yl]-L-leucinate], the figures for the IC50 with THP-1 cells, in the assay with human whole blood and on IKBKB (IKKβ) were under 1000 nM, 1000 to 5000 nM and over 5000 nM, respectively.

Turning to `NC(=O)Nc1sc(-c2ccc(/C=C/CN[C@H](C(=O)OC3CCCC3)c3ccccc3)cc2)cc1C(N)=O` [Example 41, Cyclopentyl (2S)-{[(2E)-3-{4-[4-carbamoyl-5-(carbamoylamino)-2-thienyl]phenyl}prop-2-en-1-yl]amino}(phenyl)acetate], the IC50 is 1000 to 5000 nM in the assay on THP-1 cells, 1000 to 5000 nM in the assay on human whole blood and under 1000 nM on IKBKB (IKKβ).

As to `CC(C)C[C@H](NC/C=C/c1ccc(-c2cc(C(N)=O)c(NC(N)=O)s2)cc1)C(=O)OC(C)(C)C` [Example 42, tert-Butyl N-[(2E)-3-{4-[4-carbamoyl-5-(carbamoylamino)-2-thienyl]phenyl}-prop-2-en-1-yl]-L-leucinate], the results for the IC50 in the assay on THP-1 cells, with human whole blood and at IKBKB (IKKβ) were 1000 to 5000 nM, over 5000 nM and under 1000 nM, respectively.

Turning to `CC(C)C[C@H](NC/C=C/c1cccc(-c2cc(C(N)=O)c(NC(N)=O)s2)c1)C(=O)OC1CCCC1` [Example 49, Cyclopentyl N-[(2E)-3-{3-[4-carbamoyl-5-(carbamoylamino)-2-thienyl]phenyl}prop-2-en-1-yl]-L-leucinate], the IC50 with THP-1 cells, with human whole blood and at IKBKB (IKKβ) was under 1000 nM each time.
